Test [1] relates to E. faecium strain C68 primary metabolites. As to the kind of experiment: Targeted LC-MS/MS metabolomics. Format: cell-based, Enterococcus faecium. The note with it: 5L at 2× MIC, 30 min vs control, n = 3. The method, then:
For the metabolomics sample preparation, we used exponential cultures of E. faecium strain C68 grown in BHI media adjusted to OD600 = 0.5. We treated 10 mL of this bacterial culture with 2× MIC of peptide 5L or water (for bacterial control) for 30 min at 37 °C (n = 3, technical replicates). After that, we washed the bacteria 3× times with PBS and stored the pellet at −20 °C. At a later stage, to each cell pellet, we added 0.2 mL of 2-propanol: 100 mM of NH4HCO3, pH 7.4 (1:1 v/v), and sonicated the cells. For spiking, we added 20 µL of IS to each sample and vortexed them. Subsequently, we added 1.0 mL of methanol for deproteinization and cooled the mixture at −20 °C for 10 min. After centrifugation for 10 min at 14,000× g at 4 °C, we transferred the supernatants into glass tubes and dried them under a stream of nitrogen at 40 °C. Finally, we dissolved the residues in 100 µL of water and injected 3 µL of this solution into an LC-MS/MS 8060 system (Shimadzu Scientific Inc., Columbia, MD, USA), equipped with a DUIS source operated in both positive and negative electrospray ionization modes. For the liquid chromatographic analysis, we used the Nexera UPLC system (Shimadzu Scientific Inc., Columbia, MD, USA). We quantitated primary metabolites (~150) following an established LC-MS/MS method.

The next test concerns E. faecium strain C68. Briefly: Growth inhibition assay. Type of test: cell-based, Enterococcus faecium. The note with it: 32 µg/mL, OD600 over 4 h. Here is the method:
We cultivated overnight cultures of E. faecium strain C68 in BHI media. We inoculated the bacteria in a fresh BHI medium the next day to achieve the exponential phase and adjusted the bacterial density to 1 × 10^8 CFU/mL. We added 90 µL of this bacterial culture to each well of the microtiter plates (Cat No. 3595, Corning, New York, NY, USA) containing 10 µL of serially diluted 10× peptide solution. We monitored the bacterial growth on a SpectraMax i3x spectrophotometer (Molecular Devices, San Jose, CA, USA) by taking OD600 readings every 10 min for 4 h.

Several values for one entry are separate records, joined by “and”; a condition that tells them apart may be missing. Equal values may be shown once. No end group written: not given here.

Data on two substances can be found in article PMC9404989, “Design and Evaluation of Short Bovine Lactoferrin-Derived Antimicrobial Peptides against Multidrug-Resistant Enterococcus faecium” (Antibiotics, 2022).

For the substance RRWLWLRRWLWR-NH2 [Peptide 5L], in test [1], the “Fold change 2-Aminobutryc acid” value is reported as 0.480 fold, the “Fold change 4-Aminobutryc acid” value is listed as 4.319 fold, the “Fold change Adenine” value was 0.311 fold and the “Fold change Adenylsuccinic acid” value is reported as 0.226 fold. Further, in test [1], the “Fold change Alanine” value came to 0.383 fold, the “Fold change Allantoin” value came to 2.67 fold, the “Fold change Arginosuccinic acid” value stood at 0.204 fold and the “Fold change Aspartic acid” value is 0.197 fold. For the same substance, in test [1], the “Fold change Carbamoyl aspertate” value is reported as 2.212 fold, the “Fold change Citicoline” value is 0.233 fold, the “Fold change Citric acid” value is recorded as 0.244 fold and the “Fold change Cobalamine” value is reported as 2.285 fold. Moreover, in test [1], the “Fold change Cystathionine” value is on record as 0.369 fold, the “Fold change Cysteine” value turned out to be 0.047 fold, the “Fold change Dopa” value is 0.337 fold and the “Fold change Dopamine” value came out at 3.107 fold. Moreover, in test [1], the “Fold change Fumaric acid” value came to 0.387 fold, the “Fold change Glutathione” value is given as 0.376 fold, the “Fold change Guanine” value was found to be 0.130 fold and the “Fold change Guanosine” value was 0.275 fold. In test [1], the “Fold change Histidine” value amounted to 0.420 fold, the “Fold change Inosine” value is given as 0.239 fold, the “Fold change Isocitric acid” value was 0.237 fold and the “Fold change Isoleucine” value came out at 0.458 fold. In test [1], the “Fold change Kynureine” value came to 2.152 fold, the “Fold change Leucine” value was determined as 0.373 fold, the “Fold change Malic acid” value amounted to 0.392 fold and the “Fold change Methionine” value is listed as 0.175 fold. For the same substance, in test [1], the “Fold change NAD” value stood at 0.415 fold, the “Fold change Ornitine” value is listed as 0.378 fold, the “Fold change Oxidized glutathione” value was determined as 0.403 fold and the “Fold change Phenylalanine” value came out at 0.423 fold. Besides, in test [1], the “Fold change Putriscine” value is 7.197 fold and 7 fold; the “Fold change S-Adenosylhomocysteine” value turned out to be 0.267 fold; the “Fold change Serine” value was 0.033 fold and 0.03 fold; the “Fold change Serotonin” value amounted to 2.886 fold. For the same substance, in test [1], the “Fold change Succinic acid” value stood at 0.204 fold, the “Fold change Symmetric dimethylarginine” value is reported as 2.347 fold, the “Fold change Threonine” value is 0.384 fold and the “Fold change Thymidine” value came to 0.320 fold. Moreover, in test [1], the “Fold change Tryptophan” value is 0.178 fold, the “Fold change Uridine” value was 0.228 fold, the “Fold change Valine” value worked out at 0.433 fold and the “Fold change Xanthosine” value is reported as 0.315 fold.

As for RRWLWRLRWLWR-NH2 [Peptide 6L], the growth inhibition result in the test on E. faecium strain C68 is recorded as “inhibited the maximum growth”.
